In PubChem BioAssay (NCI):
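Protocol summary: plate cells (96-well), add compound at 5 concentrations, incubate 48 h, interpolate endpoints linearly. GI50 = concentration required for 50% inhibition of growth. Definition used: TGI = concentration required for complete inhibition of growth.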

Tests used:
Assay in all cases: inhibition of tumour cell growth, NCI panel, 48 h
[1] = system: DU-145 prostate
[2] = system: MDA-MB-435
[3] = system: U251 CNS
[4] = system: LOX IMVI melanoma
[5] = system: MCF7 breast
[6] = system: SK-MEL-5 melanoma
[7] = system: NCI-H23 lung
[8] = system: SK-OV-3 ovarian
[9] = system: BT-549 breast
[10] = system: OVCAR-5 ovarian
[11] = system: SK-MEL-2 melanoma
[12] = system: RXF 393 renal
[13] = system: IGROV1 ovarian
[14] = system: SNB-75 CNS
[15] = system: MALME-3M melanoma
[16] = system: EKVX NSCLC
[17] = system: OVCAR-3 ovarian
[18] = system: OVCAR-4 ovarian
[19] = system: HT29 colon
[20] = system: ACHN renal
[21] = system: HS 578T breast
[22] = system: TK-10 renal
[23] = system: SR leukemia
[24] = system: T-47D breast
[25] = system: HCT-116 colon
[26] = system: HCC-2998 colon
[27] = system: SN12C renal
[28] = system: SK-MEL-28 melanoma
[29] = system: SF-268 CNS
[30] = system: A549 NSCLC
[31] = system: UACC-62 melanoma
[32] = system: SF-539 CNS
[33] = system: NCI/ADR-RES ovarian
[34] = system: UO-31 renal
[35] = system: 786-0 renal
[36] = system: HOP-92 NSCLC
[37] = system: UACC-257 melanoma
[38] = system: SF-295 CNS
[39] = system: KM12 colon
[40] = system: RPMI-8226 leukemia
[41] = system: NCI-H522 lung
[42] = system: COLO 205 colon
[43] = system: HL-60(TB) leukemia
[44] = system: MDA-MB-231 breast
[45] = system: OVCAR-8 ovarian
[46] = system: SW-620 colon
[47] = system: CAKI-1 renal
[48] = system: HCT-15 colon
[49] = system: NCI-H226 lung
[50] = system: K-562 leukemia
[51] = system: A498 renal
[52] = system: SNB-19 CNS
[53] = system: MDA-MB-468 breast
[54] = system: CCRF-CEM leukemia
[55] = system: PC-3 prostate
[56] = system: HOP-62 NSCLC
[57] = system: MOLT-4 leukemia
[58] = system: NCI-H460 lung
[59] = system: M14 melanoma

Compound: CN1CCN(Cc2ccc(NC(=O)c3cncc(C#Cc4cnc5ccc(N[C@H]6CCOC6)nn45)c3)cc2C(F)(F)F)CC1
- GI50 [1]: 170 nM
- TGI [1]: 716 nM
- GI50 [2]: 95.8 nM
- TGI [2]: 813 nM
- GI50 [3]: 219 nM
- TGI [3]: 1020 nM
- GI50 [4]: 56.6 nM
- TGI [4]: 153 nM
- GI50 [5]: 46.1 nM
- TGI [5]: 274 nM
- GI50 [6]: 487 nM
- TGI [6]: 1390 nM
- GI50 [7]: 81.4 nM
- TGI [7]: 249 nM
- GI50 [8]: 446 nM
- TGI [8]: 2010 nM
- GI50 [9]: 291 nM
- TGI [9]: 915 nM
- GI50 [10]: 142 nM
- TGI [10]: 536 nM
- GI50 [11]: 152 nM
- TGI [11]: 350 nM
- GI50 [12]: 108 nM
- TGI [12]: 274 nM
- GI50 [13]: 136 nM
- TGI [13]: 394 nM
- GI50 [14]: 144 nM
- TGI [14]: 330 nM
- GI50 [15]: 98.2 nM
- TGI [15]: 323 nM
- GI50 [16]: 128 nM
- TGI [16]: 696 nM
- GI50 [17]: 183 nM
- TGI [17]: 1030 nM
- GI50 [18]: 260 nM
- TGI [18]: 2130 nM
- GI50 [19]: 90.3 nM
- TGI [19]: 512 nM
- GI50 [20]: 278 nM
- TGI [20]: 980 nM
- GI50 [21]: 62.1 nM
- TGI [21]: 393 nM
- GI50 [22]: 254 nM
- TGI [22]: 828 nM
- GI50 [23]: 95 nM
- TGI [23]: 9330 nM
- GI50 [24]: 704 nM
- TGI [24]: 5150 nM
- GI50 [25]: 37 nM
- TGI [25]: 290 nM
- GI50 [26]: 181 nM
- TGI [26]: 866 nM
- GI50 [27]: 33.7 nM
- TGI [27]: 398 nM
- GI50 [28]: 235 nM
- TGI [28]: 996 nM
- GI50 [29]: 180 nM
- TGI [29]: 917 nM
- GI50 [30]: 175 nM
- TGI [30]: 643 nM
- GI50 [31]: 151 nM
- TGI [31]: 801 nM
- GI50 [32]: 21 nM
- TGI [32]: 102 nM
- GI50 [33]: 5820 nM
- TGI [33]: 25300 nM
- GI50 [34]: 962 nM
- TGI [34]: 2290 nM
- GI50 [35]: 268 nM
- TGI [35]: 959 nM
- GI50 [36]: 13.7 nM
- TGI [36]: 82.2 nM
- GI50 [37]: 483 nM
- TGI [37]: 1990 nM
- GI50 [38]: 291 nM
- TGI [38]: 1260 nM
- GI50 [39]: 6.9 nM
- TGI [39]: 526 nM
- GI50 [40]: 237 nM
- TGI [40]: 1230 nM
- GI50 [41]: 103 nM
- TGI [41]: 249 nM
- GI50 [42]: 88 nM
- TGI [42]: 197 nM
- GI50 [43]: 43.7 nM
- TGI [43]: 704 nM
- GI50 [44]: 41.4 nM
- TGI [44]: 231 nM
- GI50 [45]: 252 nM
- TGI [45]: 1130 nM
- GI50 [46]: 72.3 nM
- TGI [46]: 367 nM
- GI50 [47]: 148 nM
- TGI [47]: 511 nM
- GI50 [48]: 321 nM
- TGI [48]: 1290 nM
- GI50 [49]: 14.7 nM
- TGI [49]: 218 nM
- GI50 [50]: 6.9 nM
- TGI [50]: 930 nM
- GI50 [51]: 278 nM
- TGI [51]: 490 nM
- GI50 [52]: 249 nM
- TGI [52]: 1120 nM
- GI50 [53]: 90.3 nM
- TGI [53]: 211 nM
- GI50 [54]: 28.3 nM
- TGI [54]: 687 nM
- GI50 [55]: 185 nM
- TGI [55]: 3690 nM
- GI50 [56]: 172 nM
- TGI [56]: 677 nM
- GI50 [57]: 46.8 nM
- TGI [57]: 866 nM
- GI50 [58]: 144 nM
- TGI [58]: 828 nM
- GI50 [59]: 103 nM
- TGI [59]: 315 nM
